From the NIST ThermoML archive (doi:10.1016/j.jct.2017.07.006)

Experiments:
[1] = Liquid; for thermal conductivity: 101.33 kPa, Laser flash apparatus; for Critical pressure / Critical temperature: Resistive pulse heating
[2] = molar heat capacity at constant pressure; details: 101.33 kPa, Liquid, DSC

CCCCCCCCCCCC(=O)OCC(COC(=O)CCCCCCCCCCC)OC(=O)CCCCCCCCCCC [1,2,3-propanetriyl tridodecanoate]
Details | molar heat capacity at constant pressure, [2] [J/K/mol] | thermal conductivity, [1] [W/m/K]
330 K | 1316 | 0.164
335 K | 1323 | 0.163
340 K | 1331 | 0.162
345 K | 1340 | 0.161
350 K | 1350 | 0.161
355 K | 1361 | 0.16
360 K | 1372 | 0.16
365 K | 1384 | 0.159
370 K | 1396 | 0.159
375 K | 1407 | 0.158
380 K | 1418 | 0.158
385 K | 1428 | 0.157
390 K | 1438 | 0.156
395 K | 1446 | 0.155
400 K | 1453 | 0.154
405 K | 1458 | 0.153
410 K | 1461 | 0.151

[1]
Details | Critical pressure [kPa] | Critical temperature [K]
– | 650 | 899

CCCCCCCCCCCCCC(=O)OCC(COC(=O)CCCCCCCCCCCCC)OC(=O)CCCCCCCCCCCCC [1,2,3-propanetriyl tri(tetradecanoate)]
Details | molar heat capacity at constant pressure, [2] [J/K/mol] | thermal conductivity, [1] [W/m/K]
350 K | 1547 | 0.171
355 K | 1557 | 0.17
360 K | 1568 | 0.17
365 K | 1580 | 0.169
370 K | 1592 | 0.169
375 K | 1606 | 0.168
380 K | 1619 | 0.168
385 K | 1632 | 0.168
390 K | 1645 | 0.167
395 K | 1657 | 0.167
400 K | 1668 | 0.166
405 K | 1678 | 0.165
410 K | 1686 | 0.164

[1]
Details | Critical pressure [kPa] | Critical temperature [K]
– | 610 | 925

CCCCCCCC(=O)OCC(COC(=O)CCCCCCC)OC(=O)CCCCCCC [1,2,3-propanetriol trioctanoate]
Details | molar heat capacity at constant pressure, [2] [J/K/mol] | thermal conductivity, [1] [W/m/K]
315 K | 913.3 | 0.152
320 K | 921 | 0.152
325 K | 928.5 | 0.151
330 K | 935.9 | 0.151
335 K | 943.1 | 0.151
340 K | 950.2 | 0.15
345 K | 957.1 | 0.15
350 K | 964 | 0.15
355 K | 970.7 | 0.149
360 K | 977.4 | 0.149
365 K | 984.1 | 0.148
370 K | 990.7 | 0.148
375 K | 997.2 | 0.147
380 K | 1004 | 0.146
385 K | 1010 | 0.146
390 K | 1017 | 0.145
395 K | 1024 | 0.145
400 K | 1030 | 0.144
405 K | 1037 | 0.144
410 K | 1044 | 0.143
415 K | 1051 | 0.142
420 K | 1058 | 0.142
425 K | 1065 | 0.141

[1]
Details | Critical pressure [kPa] | Critical temperature [K]
– | 830 | 836

CCCCCCCCCC(=O)OCC(COC(=O)CCCCCCCCC)OC(=O)CCCCCCCCC [1,2,3-propanetriyl tridecanoate]
Details | molar heat capacity at constant pressure, [2] [J/K/mol] | thermal conductivity, [1] [W/m/K]
320 K | 1093 | 0.153
325 K | 1106 | 0.153
330 K | 1117 | 0.153
335 K | 1128 | 0.153
340 K | 1139 | 0.153
345 K | 1148 | 0.153
350 K | 1157 | 0.152
355 K | 1166 | 0.152
360 K | 1174 | 0.151
365 K | 1182 | 0.15
370 K | 1189 | 0.15
375 K | 1196 | 0.15
380 K | 1203 | 0.149
385 K | 1209 | 0.148
390 K | 1216 | 0.147
395 K | 1222 | 0.147
400 K | 1228 | 0.146
405 K | 1235 | 0.145
410 K | 1241 | 0.144
415 K | 1248 | 0.143

[1]
Details | Critical pressure [kPa] | Critical temperature [K]
– | 750 | 864
